Values of other authors as cited in US20240398745A1, “COMPOSITION AND METHODS OF TREATMENT USING […] - ENHANCED SUPPLEMENTATION” (Xygenyx Inc., priority 2023, published 2024).
Square brackets hold non-standard residues; d marks the D form. Peptide text beside a SMILES is read from it. Cit = NC(=O)NCCC[C@H](N)C(=O)O

Legend:
[1] = tested on: wide dynamic range neurons in the ventroposterolateral nucleus of the thalamus; conditions: believed
[2] = in vivo
[3] = tested on: skin; conditions: topical, concentrations 0.5-5%
[4] = tested on: skin; conditions: topical formulations, within four weeks of treatment
[5] = α-tocopherol taken as 1.0
[6] = even when dietary intake occurs in equal portions
[7] = in vivo; remark: listed apart in the source

CCCCCc1cc(O)c2c(c1)OC(C)(C)C1CCC(C)=CC21 (stereo not drawn) [THC, Δ-9-tetrahydrocannabinol]
power in mediating pain relative to morphine [1]: ten times more powerful than morphine

CCNC(=O)CC[C@H](N)C(=O)O [Theanine]
dose generally considered safe and well-tolerated [2]: up to 400 mg per day

C=CCCCCCCCCC(=O)N[C@@H](Cc1ccccc1)C(=O)O [UP, Undecylenoyl phenylalanine]
time of treatment to skin lightening effects [3]: ≥ 7 days

CC[C@H](C)[C@H](NC(=O)[C@H](CC(=O)O)NC(=O)[C@@H](N)CCCCN)C(=O)N[C@@H](CCCNC(N)=O)C(N)=O [tripeptide-10 citrulline, Tripeptide-10 citrulline] (H-KDI[Cit]-NH2)
improvement of suppleness [4]: ≤ 54%

Cc1c(C)c2c(c(C)c1O)CC[C@@](C)(CCC[C@H](C)CCC[C@H](C)CCCC(C)C)O2 [α-tocopherol]
reduction of risk of coronary disease (dietary supplementation, doses up to 400 IU/day): up to 34% | reduction of risk of developing neurodegenerative diseases such as Alzheimer's Syndrome or dementia (dietary supplementation, doses up to 400 IU/day, controlled trials): ≤ 24% | reduction in the development of age-related cataracts (in combination with 10-20 mg β-carotene and 400-500 mg vitamin C, doses around 400-500 IU): 23%

Cc1cc(O)c(C)c2c1O[C@](C)(CCC[C@H](C)CCC[C@H](C)CCCC(C)C)CC2 [β-tocopherol]
relative biological activity [5]: 0.5

Cc1c(O)cc2c(c1C)O[C@](C)(CCC[C@H](C)CCC[C@H](C)CCCC(C)C)CC2 [γ-tocopherol]
relative biological activity [5]: 0.1 | concentration in vivo relative to α-tocopherol [6]: roughly 10%

Cc1cc(O)cc2c1O[C@](C)(CCC[C@H](C)CCC[C@H](C)CCCC(C)C)CC2 [δ-tocopherol]
relative biological activity [5]: 0.03

HGH: hormone comprising a peptide chain that is synthesized in the pituitary gland
biological half-life [7]: 10-20 minutes
